In US20240041986A1, “METHODS AND COMPOSITIONS FOR THE TREATMENT AND PREVENTION OF TYPE 1 DIABETES” (Dr. Mary Morris & Associates, LLC, priority 2020, published 2024):

Columns and labels:
Assay type in all cases: in vivo, mouse
NOD mice = assay: Incidence and time to onset of Type 1 diabetes (hyperglycemia, blood glucose above 300 mg/dL) in NOD mice after sublingual treatment; settings: for Median survival: control 21.00; for Median Survival (i.e., time to Type 1 diabetes onset): sublingual 87 μg Humulin, control 21 weeks
Experimental: Sublingual formulation. A commercial high dose Humulin® insulin solution (Humulin® R U-500) containing 500 units of insulin per mL is mixed with an additional equal volume (1:1 (vol:vol)) 100% glycerin. Each dose contains 10 μL of the Humulin®-glycerin solution, which contains 2.5 units (approximately 87 micrograms) of insulin in a solution having a final concentration of ˜52 vol. % glycerin.
NOD mice. Non-obese diabetic (NOD) mice, as described by Makino (Adv. Immunol. 51:285-322 (1992)), are used in the studies described herein. NOD mice provide a widely accepted animal model for the spontaneous development of Type 1 diabetes. NOD mice develop insulitis as a result of leukocyte infiltration into the pancreatic islet, which in turn leads to the destruction of pancreatic islets and a Type 1 diabetic phenotype.
Five-week old female NOD mice were randomly assigned to three groups: (1) control group (1:1 glycerin/phosphate buffered saline (PBS)); (2) insulin-related peptide treatment (Humulin®) started at six weeks of age; or (3) insulin-related peptide treatment (Humulin®) started at ten weeks of age. Mice in the treatment groups (2) and (3) were sublingually administered 2.5 units/87 μg of Humulin® R insulin (10 μL of solution) twice per day […] from age 5 weeks 5 until 8 weeks of age and then once per day, five days per week up to 30 weeks of age. Blood glucose measurements were taken once per week up to 20 weeks of age, and then twice per week thereafter. Mice were classified as diabetic after three consecutive blood glucose readings above 300 mg/dL (hyperglycemic).
Female NOD mice were randomly assigned to two groups: (1) control group (50% glycerin/phosphate buffered saline (PBS)); or (2) insulin-related peptide treatment (Humulin® in 50% glycerin solution; Humulin® sublingual immunotherapy (“Humulin SLIT”)) started at five weeks of age. Mice in the treatment group (2) were sublingually administered 87 μg of Humulin® once per day, five days per week starting at five weeks of age up to 30 weeks of age. Blood glucose measurements were taken once per week up to 13 weeks of age, and then twice per week thereafter. Mice were classified as diabetic after three consecutive blood glucose readings above 300 mg/dL (hyperglycemic). […]

anti-insulin antibodies = assay: Anti-insulin antibody ELISA of serum from sublingually treated NOD mice
Experimental: Autoantibody titer assay. To detect anti-insulin antibodies 96-well ELISA plates were coated with 1 μg/well of Humulin® overnight at 4° C. and were blocked with 1% BSA in PBS. Sera were divided into two equal aliquots that were incubated with or without 10 μg/ml Humulin® on ice for 1 h. The sera were then added to Humulin® coated plates for incubation overnight at 4° C. After extensive washes, the plates were incubated with HRP-conjugated goat anti-mouse IgG The assay is described in Wan et al., J Exp Med. 2016 May 30; 213(6): 967-978.
Five-week old female NOD mice were randomly assigned to two groups: (1) control group (50% PBS/glycerin); and (2) insulin-related peptide treatment (Humulin® insulin) started at six weeks of age. Mice in the treatment group (2) were sublingually administered 87 μg of Humulin® in 50% glycerin solution twice per day, five days per week, up to 30 weeks of age. Serum samples were collected from control and Humulin® SLIT treated NOD mice at 14 weeks of age and assessed for levels of anti-insulin antibody titer (i.e., after sublingual administration of Humulin® for 8 weeks) and stored at −80 C until tested for anti-insulin antibodies in the ELISA described above. The level of anti-insulin antibodies in the samples was determined by ELISA using the assay described in Wan et al., J Exp Med. 2016 May 30; 213(6): 967-978 and the results are shown in FIG. 2. […]

C-peptide = assay: Serum C-peptide ELISA (ALPCO) in sublingually treated NOD mice; settings: NOD mice fasted overnight, Humulin started at 5 weeks of age, serum at 6 and 19 weeks of age (FIG. 5)
Experimental: Serum C-peptide assay. The mouse C-peptide ELISA (ALPCO), which quantifies C-peptide protein products of mouse I and mouse II proinsulin genes, was used. Briefly, mice are fasted overnight and blood is collected by inserting a needle into the submandibular vein and collecting ˜0.2 mL of blood. The blood is centrifuged for 10 minutes at 3000×g in a refrigerated centrifuge, and serum is collected and stored −80° C. The ALPCO C-peptide ELISA is a commercially available FDA Registered For In Vitro Diagnostic Use tool for the quantification of […] C-peptide in serum and plasma samples.
Female NOD mice were randomly assigned to two groups according to Example 3. C-peptide levels in serum were determined by ALPCO C-peptide ELISA from serum samples collected at 6 and 19 weeks of age in mice that were fasted overnight.

[1] = Humulin started at 5 weeks of age (FIG. 3)
[2] = Humulin started at 5 weeks of age vs control (FIG. 3)
[3] = Humulin started at 6 weeks of age (FIG. 1A)
[4] = Humulin started at 6 weeks of age vs control (FIG. 1A)
[5] = Humulin started at 10 weeks of age (FIG. 1B)
[6] = Humulin started at 10 weeks of age vs control (FIG. 1B)
[7] = combined FIG. 1A and FIG. 3 (FIG. 6)
[8] = combined FIG. 1A and FIG. 3 vs control (FIG. 6)

Substance: Humulin: commercial recombinant human insulin solution (Humulin® R U-500) mixed 1:1 with glycerin, sublingual formulation, 87 μg per 10 μL dose
- Ratio of median survival (Control / Humulin) (NOD mice; [1]): 0.7119
- Reciprocal of ratio of median survival (NOD mice; [1]): 1.405
- Are the survival curves sig different? Gehan-Breslow-Wilcoxon test (NOD mice; [2]): Yes
- Are the survival curves sig different? Log-rank (Mantel-Cox) test (NOD mice; [2]): Yes
- Ratio of median survival (Control / Humulin) (NOD mice; [3]): 0.778
- Reciprocal of ratio of median survival (NOD mice; [3]): 1.29
- Are the survival curves significantly different? Gehan-Breslow-Wilcoxon test (NOD mice; [4]): Yes
- Are the survival curves significantly different? Log-rank (Mantel-Cox) test (NOD mice; [4]): Yes
- Ratio of median survival (Control / Humulin) (NOD mice; [5]): 0.8750
- Reciprocal of ratio of median survival (NOD mice; [5]): 1.14
- Are the survival curves significantly different? Gehan-Breslow-Wilcoxon test (NOD mice; [6]): No
- Are the survival curves significantly different? Log-rank (Mantel-Cox) test (NOD mice; [6]): No
- incidence (% diabetic) and onset time (weeks) of Type 1 diabetes as compared to the control group (NOD mice; NOD mice, sublingual Humulin started at five weeks of age (FIG. 3)): reduced
- incidence (% T1D Onset) and onset time (weeks) of Type 1 diabetes as compared to the control group (NOD mice; NOD mice, sublingual Humulin started at six weeks of age (FIG. 1A)): significantly reduced
- Ratio of median survival (Control / Humulin) (NOD mice; [7]): 0.8077
- Reciprocal of ratio of median survival (NOD mice; [7]): 1.238
- Are the survival curves sig different? Gehan-Breslow-Wilcoxon test (NOD mice; [8]): Yes
- Are the survival curves sig different? Log-rank (Mantel-Cox) test (NOD mice; [8]): Yes
- Median survival (NOD mice; combined results of FIG. 1A and FIG. 3, Humulin started at 5 or 6 weeks of age (FIG. 6, time in Weeks)): 26.00
- Median survival (NOD mice; female NOD mice, sublingual 87 μg Humulin once per day, five days per week, started at 5 weeks of age (FIG. 3, time in Weeks)): 29.50
- Median Survival (i.e., time to Type 1 diabetes onset) (NOD mice; female NOD mice, started at 6 weeks of age (FIG. 1A)): 27 weeks
- Median Survival (i.e., time to Type 1 diabetes onset) (NOD mice; female NOD mice, started at 10 weeks of age (FIG. 1B)): 24 weeks
- development of anti-insulin antibodies as compared to the control group (anti-insulin antibodies; 87 μg Humulin started at five weeks of age, serum at 19 weeks of age (FIG. 4)): significantly reduced
- development of anti-insulin antibodies as compared to the control group (anti-insulin antibodies; 87 μg Humulin started at six weeks of age, serum at 14 weeks of age (FIG. 2)): significantly reduced
- serum C-peptide levels as compared to untreated control NOD mice (C-peptide): either a maintenance or enhancement
